Eleven compounds from ChEMBL document CHEMBL1201862, “PubChem BioAssay data set” (2004) can be followed below.

Some test systems named below: RPMI-8226; KM-20L2; OVCAR-3; CAKI-1; U-251; HT-29; UACC-257; CCRF-CEM; COLO 205; HCC 2998; A549; SK-MEL-5; A498; OVCAR-4; NCI-H460; SW-620; HOP-92; MCF7; NCI-H226; HL-60.
Common to all, as to assay: growth of human tumour cells (NCI), 48 h

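Each compound was tested at five concentrations against cells in 96-well plates for 48 hours. GI50 marks 50% less growth.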 Active and inactive are the calls of the source. Cut-off read from the data, not from the text of the source: active = GI50 up to about 1.1 µM and inactive = higher.

For the compound `COc1ccc(CC(=O)c2cc(OC)c(OC)cc2C)cc1OC`, the GI50 was 65.3 µM (inactive) with RPMI-8226; > 100 µM (inactive) in the assay on KM-20L2; 77.6 µM (inactive) with OVCAR-3; > 100 µM (inactive) in the assay on CAKI-1; > 100 µM (inactive) in the assay on U-251; > 100 µM (inactive) in the assay on HT-29. Also, the GI50 was 21.3 µM (inactive) in the assay with UACC-257; > 100 µM (inactive) with CCRF-CEM; > 100 µM (inactive) with COLO 205; > 100 µM (inactive) with HCC 2998; 71.6 µM (inactive) in the assay on A549; 24.9 µM (inactive) with SK-MEL-5. The GI50 with A498 was > 100 µM (inactive); with OVCAR-4, 29.3 µM (inactive); with NCI-H460, > 100 µM (inactive); with SW-620, > 100 µM (inactive).
With `CN(C)Cc1cc(/N=N/c2ccccc2Cl)ccc1O`, the GI50 with RPMI-8226 was 23.7 µM (inactive); in the assay with OVCAR-3, 18 µM (inactive); with CAKI-1 it was 15.1 µM (inactive); in the assay with U-251, 23.7 µM (inactive); in the assay with HT-29, 14.2 µM (inactive); in the assay with HOP-92, 17.1 µM (inactive). The GI50 is 21.1 µM (inactive) with UACC-257; 17.4 µM (inactive) in the assay with CCRF-CEM; 13.4 µM (inactive) in the assay on COLO 205; 16.8 µM (inactive) in the assay with MCF7; 16.1 µM (inactive) in the assay with NCI-H226; 13.5 µM (inactive) in the assay with HCC 2998. For the same compound, the GI50 was 9.12 µM (inactive) in the assay on A549; 11.9 µM (inactive) in the assay on SK-MEL-5; 12.7 µM (inactive) in the assay with A498; 52.6 µM (inactive) in the assay with OVCAR-4; 5.98 µM (inactive) in the assay with NCI-H460; 13.3 µM (inactive) in the assay on SW-620. Also, in the assay with HL-60, the GI50 is 10.8 µM (inactive).
Consider `O=C(Cc1nc2ccccc2[nH]c1=O)c1c[nH]c2ccccc12`, for which the GI50 in the assay with RPMI-8226 is 6.92 µM (inactive); with OVCAR-3, 14 µM (inactive); in the assay on CAKI-1 it was 20.2 µM (inactive); in the assay with U-251 it was 13.7 µM (inactive); with HT-29, 6.08 µM (inactive); with HOP-92, 23.2 µM (inactive). For the same compound, the GI50 was 23.8 µM (inactive) in the assay on UACC-257; 4.3 µM (inactive) with CCRF-CEM; 11.1 µM (inactive) in the assay on COLO 205; 11.6 µM (inactive) in the assay on MCF7; 11.9 µM (inactive) in the assay with NCI-H226; 13.3 µM (inactive) in the assay with HCC 2998. Besides, the GI50 in the assay on A549 is 10.9 µM (inactive); in the assay with SK-MEL-5, 10.8 µM (inactive); in the assay on A498, 14.7 µM (inactive); in the assay on OVCAR-4, 11.4 µM (inactive); in the assay with NCI-H460, 6.58 µM (inactive); in the assay on SW-620 it was 24.9 µM (inactive). Moreover, in the assay on HL-60, the GI50 is 10.3 µM (inactive).
On to `CC(C)(C)c1cc(Cc2ccc([N+](C)(C)C)cc2)c(O)c(C(C)(C)C)c1`, for which the GI50 was 14.8 µM (inactive) in the assay with RPMI-8226; 21.9 µM (inactive) in the assay on KM-20L2; 63.8 µM (inactive) in the assay on CAKI-1; 12.7 µM (inactive) with U-251; 15.4 µM (inactive) with HT-29; 17 µM (inactive) in the assay on UACC-257. In addition, the GI50 in the assay on CCRF-CEM was 12.5 µM (inactive); in the assay on HCC 2998, 15.7 µM (inactive); in the assay with A549, 33.9 µM (inactive); in the assay with SK-MEL-5, 10.6 µM (inactive); with A498, 53 µM (inactive); in the assay with OVCAR-4, 30.1 µM (inactive). Moreover, the GI50 in the assay on NCI-H460 was 18.6 µM (inactive); in the assay on SW-620 it was 23.2 µM (inactive); in the assay with HL-60, 2.41 µM (inactive).
For the compound `CCC(C)C(N)C(=O)N/N=C\c1c2c(nc3ccccc13)-c1cc3c(c(=O)n1C2)COC(=O)[C@]3(O)CC` (stereo not given in full), the GI50 with RPMI-8226 was 0.142 µM (active); in the assay on OVCAR-3, 0.879 µM (active); with CAKI-1 it was 0.0397 µM (active); with U-251, < 0.01 µM (active); in the assay with HT-29, 0.69 µM (active); in the assay on HOP-92 it was 0.0803 µM (active). The GI50 in the assay on UACC-257 was 0.467 µM (active); in the assay with CCRF-CEM, < 0.01 µM (active); with COLO 205 it was 2.95 µM (inactive); in the assay on MCF7, < 0.01 µM (active); in the assay with NCI-H226, 0.0598 µM (active); with HCC 2998, 0.36 µM (active). For the same compound, the GI50 was 0.173 µM (active) in the assay with A549; 0.0594 µM (active) with SK-MEL-5; 0.205 µM (active) in the assay with A498; 1.43 µM (inactive) with OVCAR-4; < 0.0134 µM (active) with NCI-H460; 0.127 µM (active) with SW-620. In addition, the GI50 in the assay on HL-60 is 0.0164 µM (active).
Turning to `CC(C)=CCC[C@@H](C)c1c2ncc[nH]c-2c(C)c(=O)c1O`, the GI50 is 20 µM (inactive) in the assay with RPMI-8226; 27.4 µM (inactive) in the assay on OVCAR-3; 35.1 µM (inactive) in the assay with CAKI-1; 43.6 µM (inactive) in the assay with U-251; 27.4 µM (inactive) with HT-29; 23.8 µM (inactive) with HOP-92. In addition, the GI50 with UACC-257 was 31.9 µM (inactive); with CCRF-CEM it was 4.53 µM (inactive); with COLO 205, 28.8 µM (inactive); in the assay on MCF7, 36.8 µM (inactive); with NCI-H226 it was 16.9 µM (inactive); with HCC 2998, 31.9 µM (inactive). Besides, the GI50 was 22.1 µM (inactive) in the assay with A549; 11.7 µM (inactive) in the assay with SK-MEL-5; 30 µM (inactive) with A498; 26.1 µM (inactive) in the assay on OVCAR-4; 10.8 µM (inactive) with NCI-H460; 33.1 µM (inactive) in the assay with SW-620. Also, the GI50 in the assay on HL-60 was 7.03 µM (inactive).
With `COc1ccc(COCC[C@H](C)OC2OC(CO)C(O)C(O)C2O)cc1` (stereo not given in full), the GI50 in the assay with RPMI-8226, in the assay on OVCAR-3, in the assay on CAKI-1, with U-251, in the assay on HT-29 and in the assay with HOP-92 was > 100 µM (inactive) throughout. For the same compound, the GI50 with UACC-257, with CCRF-CEM, in the assay with COLO 205, in the assay with MCF7, in the assay with NCI-H226 and in the assay with HCC 2998 was > 100 µM (inactive) throughout. In addition, the GI50 in the assay on A549, in the assay on SK-MEL-5, in the assay with A498, in the assay with OVCAR-4, in the assay on NCI-H460 and in the assay with SW-620 was > 100 µM (inactive) each time. The GI50 in the assay on HL-60 is > 100 µM (inactive).
For the compound `CC(C)c1ccc(/C=C2\N=C(c3ccc([N+](=O)[O-])cc3)OC2=O)cc1`, the GI50 in the assay on RPMI-8226 is > 100 µM (inactive); with OVCAR-3, > 100 µM (inactive); with CAKI-1, > 100 µM (inactive); with U-251 it was 54.2 µM (inactive); in the assay on HT-29, > 100 µM (inactive); in the assay with HOP-92 it was > 100 µM (inactive). Also, the GI50 was > 100 µM (inactive) in the assay with UACC-257; 55.7 µM (inactive) with CCRF-CEM; > 100 µM (inactive) with COLO 205; > 100 µM (inactive) with MCF7; > 100 µM (inactive) in the assay with NCI-H226; > 100 µM (inactive) in the assay on HCC 2998. Also, the GI50 in the assay with A549, in the assay on SK-MEL-5, in the assay with A498, in the assay on OVCAR-4, in the assay with NCI-H460 and in the assay on SW-620 was > 100 µM (inactive) each time. In the assay on HL-60, the GI50 is > 100 µM (inactive).
Take `CN(C)CCC(CCN(C)C)=NOC(=O)c1ccccc1`: the GI50 in the assay on RPMI-8226, in the assay on KM-20L2, with OVCAR-3, in the assay on CAKI-1, with U-251 and with HT-29 was > 100 µM (inactive) throughout. The GI50 with UACC-257, in the assay on CCRF-CEM, in the assay with COLO 205, in the assay on HCC 2998, in the assay on A549 and in the assay on SK-MEL-5 was > 100 µM (inactive) in each case. Moreover, the GI50 in the assay on A498, in the assay on OVCAR-4, with NCI-H460, in the assay with SW-620 and in the assay with HL-60 was > 100 µM (inactive) in each case.
`CC(=O)OC12CC(C)C3(O)C4C=C(C)C(=O)[C@@]4(O)CC(CO)=C[C@H]3C1C2(C)C` (stereo not given in full): the GI50 with RPMI-8226 was > 10 µM (inactive); in the assay on OVCAR-3, > 10 µM (inactive); in the assay with CAKI-1, 4.7 µM (inactive); in the assay with U-251, > 10 µM (inactive); in the assay on HT-29, > 10 µM (inactive); in the assay on HOP-92, 65.8 µM (inactive). Also, the GI50 is > 10 µM (inactive) with UACC-257; > 1000 µM (inactive) in the assay on CCRF-CEM; 1.88 µM (inactive) in the assay on COLO 205; > 10 µM (inactive) in the assay on MCF7; > 10 µM (inactive) with NCI-H226; 4.21 µM (inactive) in the assay on HCC 2998. Also, the GI50 in the assay on A549 is 2.38 µM (inactive); with SK-MEL-5, 5.2 µM (inactive); in the assay on A498, 0.41 µM (active); in the assay on OVCAR-4, > 10 µM (inactive); with NCI-H460, > 100 µM (inactive); in the assay on SW-620, 5.73 µM (inactive). Moreover, in the assay on HL-60, the GI50 was 0.887 µM (active).
For the compound `O=C(O)Cc1c[nH]c2ccc(F)cc12`, the GI50 in the assay with RPMI-8226, with OVCAR-3, in the assay with CAKI-1, with U-251, in the assay on HT-29 and in the assay with HOP-92 was > 100 µM (inactive) throughout. The GI50 with UACC-257, in the assay on CCRF-CEM, with COLO 205, in the assay with MCF7, with NCI-H226 and with HCC 2998 was > 100 µM (inactive) in each case. For the same compound, the GI50 in the assay on A549, in the assay on SK-MEL-5, in the assay on A498, in the assay with OVCAR-4, in the assay with NCI-H460 and in the assay with SW-620 was > 100 µM (inactive) in each case. Further, the GI50 in the assay with HL-60 is > 100 µM (inactive).
